Assay results taken from patent publication US11667649B2, “Heteroaromatic macrocyclic ether chemotherapeutic agents” (Nuvalent, Inc., priority 2020, dated 2023).
pKi: −log10 of the molar value.

Columns and labels:
ALK-wt kinase domain = molecular target: T1, ALK-wt kinase domain (Homo sapiens, UniProt Q9UM73); assay: Biochemical kinase assay, ALK-wt; conditions: 2 mM ATP substrate solution, read-out: Ki^app ALK-wt
T1 construct: TRKA-wt (1 nM, BPS Bio, 40280) kinase domains in buffer; purchased Carna 08-518
Protocol: (§1) First, 250 nL of compound dissolved in DMSO (100-fold of the desired concentration) was dispensed into a 384-well plate. A 12.5 μL substrate solution containing ATP (2 mM) and fluorogenic phosphorylation substrate AQT0101 (26 μM for ALK and ROS1, AssayQuant) or AQT0104 (26 μM for TRKA, AssayQuant) in buffer (50 mM HEPES pH 7.5, 0.01% Brij-35, 0.5 mM EGTA, 10 mM MgCl2) was added and mixed thoroughly. Then, a 12.5 μL kinase solution containing ALK-wt (1.5 nM, Carna, 08-518), ALK ALK L1196M/G1202R (3 nM, SignalChem, A19-12NG), ROS1-wt (0.6 nM, Carna, 08-163), ROS1-G2032R (0.5 nM, SignalChem, R14-12BG), or TRKA-wt (1 nM, BPS Bio, 40280) kinase domains in buffer ([…] HEPES pH 7.5, 0.01% Brij-35, 2% glycerol, 0.4 mg/mL BSA, 0.5 mM EGTA, and 10 mM MgCl2) was added and mixed thoroughly. The plate was sealed and read by SpectraMax Paradigm at λ=485 nm every 2 minutes for 120 minutes at 30° C. Initial rates of reaction (v) were calculated from the change in fluorescence intensity over time during the initial, linear portion of the reaction. Finally, apparent inhibitory constants (Ki^app) were determined from regression of v and I (inhibitor concentration) to Morrison Equation (E=enzyme concentration): […]

[1] = molecular target: T2, ROS1-G2032R kinase domain (Homo sapiens, UniProt P08922, G2032R); assay: Biochemical kinase assay, ROS1-G2032R; conditions: 2 mM ATP substrate solution, read-out: Ki^app ROS1-G2032R
T2 construct: TRKA-wt (1 nM, BPS Bio, 40280) kinase domains in buffer; purchased SignalChem R14-12BG
Protocol: as §1

TRKA-wt kinase domain = molecular target: T3, TRKA-wt kinase domain (Homo sapiens, UniProt P04629); assay: Biochemical kinase assay, TRKA-wt; conditions: 2 mM ATP substrate solution, read-out: Ki^app TRKA-wt
T3 construct: TRKA-wt (1 nM, BPS Bio, 40280) kinase domains in buffer; purchased BPS Bio 40280
Protocol: as §1

[2] = molecular target: T4, ALK L1196M/G1202R kinase domain (Homo sapiens, UniProt Q9UM73, G1202R/L1196M); assay: Biochemical kinase assay, ALK L1196M/G1202R; conditions: 2 mM ATP substrate solution, read-out: Ki^app ALK-L1196M-G1202R
T4 construct: TRKA-wt (1 nM, BPS Bio, 40280) kinase domains in buffer; purchased SignalChem A19-12NG
Protocol: as §1

ROS1-wt kinase domain = molecular target: T5, ROS1-wt kinase domain (Homo sapiens, UniProt P08922); assay: Biochemical kinase assay, ROS1-wt; conditions: 2 mM ATP substrate solution, read-out: Ki^app ROS1-wt
T5 construct: TRKA-wt (1 nM, BPS Bio, 40280) kinase domains in buffer; purchased Carna 08-163
Protocol: as §1

SMILES	pKi (ALK-wt kinase domain)	pKi [1]	pKi (TRKA-wt kinase domain)	pKi [2]	pKi (ROS1-wt kinase domain)
C[C@H]1Oc2cc(cnc2N)-c2c(nnn2CC2CC2)Cc2cc(C(F)F)nn2-c2ccc(F)cc21 [Compound 122]	> 7.30	> 7.30	6.30 to 7.30	> 7.30	> 7.30
CCn1ncc2c1-c1cnc(N)c(c1)O[C@H](C)c1cc(F)ccc1-c1nn(C)c(Cl)c1C2 [Compound 28]	> 7.30	> 7.30	> 7.30	> 7.30	> 7.30
C[C@H]1Oc2cc(cnc2N)-c2c(nnn2CC2CC2)Cc2cc(Cl)nn2-c2ccc(F)cc21 [Compound 108]	> 7.30	> 7.30	6.30 to 7.30	> 7.30	> 7.30
C[C@H]1Oc2cc(cnc2N)-c2c(C#N)cnn2Cc2ccnn2-c2ccc(F)cc21 [Compound 62]	> 7.30	6.30 to 7.30	< 6.30	> 7.30	> 7.30
CC1Oc2cc(cnc2N)-c2c(C#N)cnn2Cc2cnn(C)c2-c2ccc(F)cc21 (stereo not shown) [Compound 60]	> 7.30	6.30 to 7.30	< 6.30	6.30 to 7.30	> 7.30
C[C@H]1Oc2cc(cnc2N)-c2c(cnn2CC(F)F)Cc2cn(C)nc2-c2ccc(F)cc21 [Compound 22]	> 7.30	> 7.30	< 6.30	> 7.30	> 7.30
CCn1nc(C#N)c2c1-c1cnc(N)c(c1)O[C@H](C)c1cc(F)ccc1-c1nn(C)cc1C2 [Compound 156]	> 7.30	> 7.30	6.30 to 7.30	> 7.30	> 7.30
CCn1ncc2c1-c1cnc(N)c(c1)O[C@H](C)c1cc(F)ccc1-n1nc(OC)cc1C2 [Compound 98]	> 7.30	> 7.30	> 7.30	> 7.30	> 7.30
C[C@H]1Oc2cc(cnc2N)-c2c(cnn2CC2CC2)Cc2cn(C(F)F)nc2-c2ccc(F)cc21 [Compound 160]	> 7.30	> 7.30	< 6.30	> 7.30	> 7.30
CC1Oc2cc(cnc2N)-c2c(cnn2CCF)Cn2ccnc2-c2ccc(F)cc21 (stereo not shown) [Compound 39]	> 7.30	> 7.30	< 6.30	6.30 to 7.30	> 7.30
CCn1nc(Cl)c2c1-c1cnc(N)c(c1)O[C@H](C)c1cc(F)ccc1-c1nn(C)cc1C2 [Compound 73]	> 7.30	> 7.30	6.30 to 7.30	> 7.30	> 7.30
CCc1noc2c1-c1cnc(N)c(n1)O[C@H](C)c1cc(F)ccc1-c1nn(C)cc1C2 [Compound 162]	> 7.30	> 7.30	> 7.30	> 7.30	> 7.30
CCn1ncc2c1-c1cnc(N)c(c1)O[C@H](C)c1cc(F)ccc1-c1nn(C(F)F)cc1C2 [Compound 86]	> 7.30	> 7.30	< 6.30	6.30 to 7.30	> 7.30
CCn1ncc2c1-c1cnc(N)c(c1)O[C@H](C)c1cc(F)ccc1-c1nn(C)cc1C2 [Compound 1]	> 7.30	> 7.30	> 7.30	> 7.30	> 7.30
CCn1nc(Cl)c2c1-c1cnc(N)c(c1)O[C@H](C)c1cc(F)ccc1-n1nc(C)cc1C2 [Compound 76]	> 7.30	> 7.30	> 7.30	> 7.30	> 7.30
CCc1ncn2c1-c1cnc(N)c(c1)O[C@H](C)c1cc(F)ccc1-c1nn(C)cc1C2 [Compound 50]	> 7.30	> 7.30	> 7.30	> 7.30	> 7.30
C[C@H]1Oc2cc(cnc2N)-c2c(C(F)F)cnn2Cc2cc(F)cnc2-c2ccc(F)cc21 [Compound 17]	> 7.30	6.30 to 7.30	6.30 to 7.30	6.30 to 7.30	> 7.30
Cc1nc(C#N)c2n1Cc1cccnc1-c1ccc(F)cc1[C@@H](C)Oc1cc-2cnc1N [Compound 18]	> 7.30	> 7.30	< 6.30	> 7.30	> 7.30

SMILES	pKi (ALK-wt kinase domain)	pKi [1]	pKi (TRKA-wt kinase domain)	pKi [2]	pKi (ROS1-wt kinase domain)
C[C@H]1Oc2cc(cnc2N)-c2c(nn(C)c2CC2CC2)Cc2cn(C)nc2-c2ccc(F)cc21 [Compound 179]	> 7.30	> 7.30	6.30 to 7.30	> 7.30	> 7.30
CCn1ncc2c1-c1ccc(F)cc1[C@@H](C)Oc1cc(cnc1N)-c1c(cnn1C)C2 [Compound 4]	> 7.30	> 7.30	> 7.30	> 7.30	> 7.30
CCn1ncc2c1-c1cnc(N)c(c1)OCc1cc(F)ccc1-n1ncc(F)c1C2 [Compound 48]	> 7.30	> 7.30	< 6.30	> 7.30	> 7.30
C[C@H]1Oc2cc(cnc2N)-c2c(C#N)ncn2Cc2cnccc2-c2ccc(F)cc21 [Compound 10]	> 7.30	> 7.30	< 6.30	> 7.30	> 7.30
C[C@H]1Oc2cc(cnc2N)-c2c(nnn2CC2CC2)Cc2cc(F)cnc2-c2ccc(F)cc21 [Compound 106]	> 7.30	> 7.30	6.30 to 7.30	> 7.30	> 7.30
CCn1ncc2c1-c1ccc(F)cc1C(C)Oc1nc(cnc1N)-c1c(cnn1C)C2 (stereo not shown) [Compound 165]	> 7.30	6.30 to 7.30	6.30 to 7.30	6.30 to 7.30	> 7.30
CCc1noc2c1-c1cnc(N)c(c1)O[C@H](C)c1cc(F)cc(F)c1-c1nn(C)cc1C2 [Compound 90]	> 7.30	> 7.30	6.30 to 7.30	> 7.30	> 7.30
Cc1nc2c(s1)Cn1ncc(C#N)c1-c1cnc(N)c(c1)O[C@H](C)c1cc(F)ccc1-2 [Compound 67]	> 7.30	> 7.30	6.30 to 7.30	> 7.30	> 7.30
C[C@H]1Oc2cc(cnc2N)-c2c(C#N)nnn2Cc2cccnc2-c2ccc(F)cc21 [Compound 25]	> 7.30	6.30 to 7.30	< 6.30	6.30 to 7.30	> 7.30
Cc1cc2n(n1)-c1ccc(F)cc1[C@@H](C)Oc1cc(cnc1N)-c1c(c(C)nn1CC1CC1)C2 [Compound 141]	> 7.30	> 7.30	6.30 to 7.30	> 7.30	> 7.30
Cc1cc2n(n1)-c1ccc(F)cc1[C@@H](C)Oc1cc(cnc1N)-c1c(cnn1CC1CC1)C2 [Compound 109]	> 7.30	> 7.30	> 7.30	> 7.30	> 7.30
CCn1ncc2c1-c1cnc(N)c(c1)O[C@H](C)c1cc(F)ccc1-n1nc(F)cc1C2 [Compound 71]	> 7.30	> 7.30	> 7.30	> 7.30	> 7.30
CCc1nn(C)c2c1-c1cnc(N)c(c1)OCc1cc(F)ccc1-n1nc(C)cc1C2 [Compound 55]	> 7.30	> 7.30	6.30 to 7.30	> 7.30	> 7.30
C[C@H]1Oc2cc(cnc2N)-c2c(CC(F)F)nn(C)c2Cc2cc(C(F)F)nn2-c2ccc(F)cc21 [Compound 180]	> 7.30	> 7.30	6.30 to 7.30	> 7.30	> 7.30
C[C@H]1Oc2cc(cnc2N)-c2c(C#N)ncn2Cc2cn(C)nc2-c2ccc(F)cc21 [Compound 13]	> 7.30	> 7.30	< 6.30	> 7.30	> 7.30
C[C@H]1Oc2cc(cnc2N)-c2c(C#N)ncn2Cc2cc(F)cnc2-c2ccc(F)cc21 [Compound 63]	> 7.30	> 7.30	< 6.30	> 7.30	> 7.30
C[C@H]1Oc2cc(cnc2N)-c2c(nnn2CC2CC2)Cc2cc(C(F)(F)F)nn2-c2ccc(F)cc21 [Compound 128]	> 7.30	> 7.30	6.30 to 7.30	> 7.30	> 7.30
